Laboratory results taken from patent US20240229156A1, “METHODS FOR USING A HYPOMETHYLATING AGENT TO TREAT DISEASES AND DISORDERS BASED ON GENE MUTATION PROFILES” (Celgene Corporation, priority 2021, published 2024).
Where “and” joins values, the source holds several entries; their conditions need not be identical. Identical values can stand only once.

Tests used:
[1] = tested on: patients with AML who were in first remission after intensive chemotherapy; assay: Phase 3 QUAZAR (CC0486-AML-001) trial of CC-486 maintenance: gene mutation, cytogenetic and MRD status correlated with OS and RFS; assay type: in vivo, human
Protocol: The correlative analyses of gene mutations with clinical indices (overal survival (OS), relapse-free survival (RFS)) were performed in the CC0486-AML-001 study (the QUAZAR® study). […] In this clinical trial, the key enrollment criteria included newly diagnosed de novo or secondary AML patients, with either intermediate or poor risk (based on the 2012 National Comprehensive Cancer Network (NCCN) classification), were 55 years of age or older, who were in complete remission with or without complete blood count recovery. Patients were also those that were not candidates for hematopoietic stem-cell transplantation. See, ClinicalTrials.gov Identifier: NCT01757535, https://clinicaltrials.gov/ct2/show/NCT01757535, the entirety of which is incorporated herein by reference.
The primary end point was overall survival (OS). Secondary end points included relapse-free survival (RFS).
Bone marrow mononuclear cell (BMMC) DNA was isolated from patients at diagnoses (before consideration for study enrollment) and specific gene mutations (NPM1, FLT3 ITD, FLT3 TKD, CEBPA, MLL, P53, cKIT, NRAS) were determined by investigator report or retrospectively identified by central sequencing for available samples. Cytogenetic risk classification was performed according to the 2012 NCCN Guidelines (source: National Comprehensive Cancer Network Clinical Practice Guidelines in Oncology for Acute Myeloid Leukemia; available at https://www.nccn.org/professionals/physician_gls/PDF/aml.pdf); only intermediate- and poor-risk patients were eligible.
At screening (post-IC/C induction chemotherapy/consolidation, when patients achieved complete remission (CR) or CR with incomplete blood count recovery (CRi), gene mutations were identified by targeted next-generation sequencing (ArcherDX VariantPlex Core Myeloid panel; 37 genes, ArcherDX, Boulder, CO) of DNA isolated from BMMCs. Gene mutational analyses and variants reported were based on the sequence coverages of the 37-gene AML panel. Mutation variants were filtered. Karyotypes from post-IC/C bone marrow samples were determined by MLL (Munich Leukemia Laboratory, Munich, Germany). […] defined as three or more cytogenetic abnormalities in the absence of a WHO designated recurring translocation or inversion; i.e., t(8;21)(q22;q22.1); t(9;11)(p21.3;q23.3); inv(3)(q21.3q26.2) or t(3;3)(q21.3;q26.2); t(6;9)(p23;q34.1); t(v;11;q23.3).
When applicable, statistical analyses were performed using Prism Software (v.8.0.0; GraphPad Software, San Diego, CA) or R statistical computing software environment (v3.6.3). OS and RFS were estimated using Kaplan-Meier methods and P values were calculated using the log-rank test. Cox regression analyses were performed to evaluate the association of gene mutation status and treatment arm with OS and RFS. Gene mutation frequencies and landscape were visualized. Correlative analyses including single gene mutation and co-mutational queries were performed with clinical response. All possible pairings between genes and/or cytogenetic alterations were evaluated for tendency to co-occur or for mutual exclusivity; i.e., a pair of alterations occurring together more frequently or rarely than expected by their individual frequencies, as described by Papaemmanuil et al. (N Engl J Med, 2016). 2×2 contingency tables were generated to test putative associations using Fisher's exact tests and adjusted to control for multiple hypothesis testing. Significant differences between groups were assessed using statistical methods listed in the corresponding Figure footnotes. P-values were considered statistically significant at *p≤0.05, **p≤0.01, or ***p≤0.001.

DNA methylation = settings: clinical studies; cited from earlier work

## Nc1ncn([C@@H]2O[C@H](CO)C(O)C2O)c(=O)n1 (stereo partly drawn) [CC-486, 4-amino-l-B-D-ribofuranosyl-1,3,5-triazin-2(1H)-one]
[1]; DNMT3A mutation postIC/C, FIG. 18A, placebo 13.0, p=0.0003
  median OS: 24.8 months
[1]; DNMT3A mutation postIC/C, FIG. 18B, placebo 4.7, p<0.0001
  median RFS: 18.4 months
[1]; FIG. 6B (RFS figure), NPM1 mutation at diagnosis, placebo 6.9, p=0.0098
  median OS: 23.2 months
[1]; FIG. 9B (RFS figure), FLTITD/FLT3-TKD mutation, placebo 4.6, p=0.0475
  median OS: 23.1 months
[1]; FIG. 10B (RFS figure), NPM1 mutation and FLTITD WT, placebo 7.8, p=0.0572
  median OS: 21.1 months
[1]; FIG. 10F (RFS figure), NPM1 WT and FLTITD mutation, placebo 4.0, p=0.9446
  median OS: 4.5 months
[1]; FLTITD/FLT3-TKD mutation NPM1 WT, FIG. 13B, placebo 8.7, p=0.4105
  median OS: 11.8 months
[1]; FLTITD/FLT3-TKD mutation NPM1 WT, FIG. 13D
  prolonged RFS, CC-486 vs placebo: no statistical significance
[1]; FLTITD/FLT3-TKD mutation at diagnosis, placebo 9.7, p=0.0797
  median OS: 28.2 months
[1]; FLTITD/FLT3-TKD wild type, placebo 4.9, p=0.0009
  median RFS: 10.2 months
[1]; FLTITD/FLT3-TKD wild type, placebo 15.2, p=0.0123
  median OS: 24.7 months
[1]; NPM1 WT and FLTITD mutation, FIG. 10E, placebo 9.7, p=0.9207
  median OS: 9.2 months
[1]; NPM1 mutation FLTITD WT, FIG. 10A, placebo 18.0, p=0.0802
  median OS: 47.1 months
[1]; NPM1 mutation FLTITD/FLT3-TKD WT, FIG. 13A, placebo 20.2, p=0.0763
  median OS: 47.1 months
[1]; NPM1 mutation FLTITD/FLT3-TKD WT, FIG. 13C, placebo 7.7, p=0.0827
  median RFS: 18.4 months
[1]; NPM1 mutation FLTITD/FLT3-TKD mutation, FIG. 13A and 13B, placebo 13.4, p=0.0827
  median OS: 46.1 months
[1]; NPM1 mutation FLTITD/FLT3-TKD mutation, FIG. 13C and 13D, placebo 4.9, p=0.0278
  median RFS: 46.1 months
[1]; NPM1 mutation and FLTITD mutation, FIG. 10C, placebo 11.5, p=0.0488
  median OS: 49.3 months
[1]; NPM1 mutation and FLTITD mutation, FIG. 10D, placebo 4.6, p=0.0368
  median RFS: 10.2 months
[1]; NPM1 mutation and MRD negative status, FIG. 6C
  median OS: 47.2 months
[1]; NPM1 mutation and MRD positive status, FIG. 6C
  median OS: 32.7 months
[1]; NPM1 mutation at diagnosis, FIG. 5C, vs NPM1 wild type p<0.0001
  median RFS: 23.23 months
[1]; NPM1 mutation at diagnosis, placebo 15.9, p=0.0138, vs NPM1 wild type p=0.0006
  median OS: 46.09 months and 46.1 months
[1]; NPM1 wild type and MRD negative, FIG. 6C
  median OS: 24.6 months
[1]; NPM1 wild type and MRD positive status, FIG. 6C
  median OS: 13.8 months
[1]; NPM1 wild type at diagnosis, placebo 4.6, p=0.0029
  median RFS: 7.688 months and 7.7 months
[1]; NPM1 wild type at diagnosis, placebo 14.6, p=0.0365
  median OS: 19.58 months and 19.6 months
[1]; WT DNMT3A postIC/C
  OS, CC-486 versus placebo: No differences
  RFS, CC-486 versus placebo: No differences
[1]; WT p53 postIC/C
  OS, CC-486 versus placebo: increases
  RFS, CC-486 versus placebo: increases
[1]; abnormal karyotype (>1 abnormality) postIC/C, FIG. 17C
  OS, CC-486 versus placebo: no statistically significant differences
[1]; abnormal karyotype (>1 abnormality) postIC/C, FIG. 17D
  RFS, CC-486 versus placebo: no statistically significant differences
[1]; complex karyotype (≥4 abnormalities) postIC/C, vs normal karyotype p<0.0001
  median RFS: 1.906 months
[1]; complex karyotype (≥4 abnormalities) postIC/C, vs normal karyotype p=0.0003
  median OS: 6.932 months
[1]; de novo AML, FIG. 1A, placebo 14.55, p=0.0068
  median OS: 23.23 months
[1]; de novo AML, FIG. 1B, placebo 4.90, p=0.0002
  median RFS: 10.15 months
[1]; intermediate cytogenetic risk at diagnosis, placebo 5.8, p=0.0004
  median RFS: 11 months
[1]; intermediate cytogenetic risk at diagnosis, placebo 16, p=0.0093
  median OS: 25 months
[1]; mutations in SRSF2 alone postIC/C, FIG. 21A, p=0.0809
  RFS, CC-486 versus placebo: trend for improved RFS
[1]; normal karyotype (no abnormalities) postIC/C, placebo 14.95, p=0.004, vs complex karyotype p=0.0003
  median OS: 25.10 months and 25.1 months
[1]; normal karyotype postIC/C, placebo 4.895, p<0.0001, vs complex karyotype p<0.0001
  median RFS: 10.97 months
[1]; other patients (lack NPM1 mutation in combination with FLTITD WT), FIG. 10A, placebo 14.6, p=0.0119
  median OS: 20.2 months
[1]; other patients, FIG. 10B, placebo 4.6, p=0.0006
  median RFS: 7.9 months
[1]; other patients, FIG. 10C, placebo 14.9, p=0.0080
  median OS: 24.7 months
[1]; other patients, FIG. 10D, placebo 4.1, p=0.0008
  median RFS: 10.2 months
[1]; other patients, FIG. 10E, placebo 14.9, p=0.0020
  median OS: 25.0 months
[1]; other patients, FIG. 10F, placebo 4.9, p<0.0001
  median RFS: 10.2 months
[1]; p53 mutation postIC/C, FIG. 18C
  OS, CC-486 versus placebo: no statistically significant differences
[1]; p53 mutation postIC/C, FIG. 18D, placebo 3.5, p=0.0579
  median RFS: 7.4 months
[1]; patients treated with CC-486, abnormal karyotype (1-3 abnormalities), FIG. 16
  differences in median OS or median RFS, normal versus abnormal karyotype: statistically significant differences
[1]; poor cytogenetic risk at diagnosis, placebo 3.7, p=0.0776
  median RFS: 4.6 months
[1]; poor cytogenetic risk at diagnosis, placebo 7.4, p=0.0602
  median OS: 14 months
[1]; secondary AML, FIG. 1A, placebo 15.67, p=0.1072
  median OS: 28.19 months
[1]; secondary AML, FIG. 1B, placebo 2.45, p=0.0118
  median RFS: 4.67 months
DNA methylation
  demethylative effects as compared to VIDAZA: more sustainable demethylative effects
